From PubChem BioAssay (NCI)
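Five compound concentrations were applied to cells in 96-well plates for 48 hours; endpoints were derived by simple linear interpolation of the resulting dose-response curve. The concentration for full growth arrest is given as TGI.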

Tests used:
Assay in all cases: NCI-60 cell line screen, 48 h
786-0 renal = tested on: 786-0 renal
A498 renal = tested on: A498 renal
A549 NSCLC = tested on: A549 NSCLC
ACHN renal = tested on: ACHN renal
BT-549 breast = tested on: BT-549 breast
CAKI-1 renal = tested on: CAKI-1 renal
CCRF-CEM leukemia = tested on: CCRF-CEM leukemia
COLO 205 colon = tested on: COLO 205 colon
DU-145 prostate = tested on: DU-145 prostate
EKVX NSCLC = tested on: EKVX NSCLC
HCC-2998 colon = tested on: HCC-2998 colon
HCT-116 colon = tested on: HCT-116 colon
HCT-15 colon = tested on: HCT-15 colon
HL-60(TB) leukemia = tested on: HL-60(TB) leukemia
HOP-62 NSCLC = tested on: HOP-62 NSCLC
HOP-92 NSCLC = tested on: HOP-92 NSCLC
HS 578T breast = tested on: HS 578T breast
HT29 colon = tested on: HT29 colon
IGROV1 ovarian = tested on: IGROV1 ovarian
K-562 leukemia = tested on: K-562 leukemia
KM12 colon = tested on: KM12 colon
LOX IMVI melanoma = tested on: LOX IMVI melanoma
M14 melanoma = tested on: M14 melanoma
MALME-3M melanoma = tested on: MALME-3M melanoma
MCF7 breast = tested on: MCF7 breast
MDA-MB-231 breast = tested on: MDA-MB-231 breast
MDA-MB-435 = tested on: MDA-MB-435
MDA-N = tested on: MDA-N
MOLT-4 leukemia = tested on: MOLT-4 leukemia
NCI-H226 lung = tested on: NCI-H226 lung
NCI-H23 lung = tested on: NCI-H23 lung
NCI-H460 lung = tested on: NCI-H460 lung
NCI-H522 lung = tested on: NCI-H522 lung
NCI/ADR-RES ovarian = tested on: NCI/ADR-RES ovarian
OVCAR-3 ovarian = tested on: OVCAR-3 ovarian
OVCAR-4 ovarian = tested on: OVCAR-4 ovarian
OVCAR-5 ovarian = tested on: OVCAR-5 ovarian
OVCAR-8 ovarian = tested on: OVCAR-8 ovarian
PC-3 prostate = tested on: PC-3 prostate
RPMI-8226 leukemia = tested on: RPMI-8226 leukemia
RXF 393 renal = tested on: RXF 393 renal
SF-268 CNS = tested on: SF-268 CNS
SF-295 CNS = tested on: SF-295 CNS
SF-539 CNS = tested on: SF-539 CNS
SK-MEL-2 melanoma = tested on: SK-MEL-2 melanoma
SK-MEL-28 melanoma = tested on: SK-MEL-28 melanoma
SK-MEL-5 melanoma = tested on: SK-MEL-5 melanoma
SK-OV-3 ovarian = tested on: SK-OV-3 ovarian
SN12C renal = tested on: SN12C renal
SNB-19 CNS = tested on: SNB-19 CNS
SNB-75 CNS = tested on: SNB-75 CNS
SR leukemia = tested on: SR leukemia
SW-620 colon = tested on: SW-620 colon
T-47D breast = tested on: T-47D breast
TK-10 renal = tested on: TK-10 renal
U251 CNS = tested on: U251 CNS
UACC-257 melanoma = tested on: UACC-257 melanoma
UACC-62 melanoma = tested on: UACC-62 melanoma
UO-31 renal = tested on: UO-31 renal

Measured: TGI

Cc1ccc2c(c1)C(=O)C(C1OC(=O)c3ccccc31)C2 (centres undefined)
> 100 µM: all assays above
